Columns and labels:
Experiment in all cases: relative viability (nuclei count vs DMSO), 5 days (fraction); higher = more cells survive
Tipifarnib = compound: Cn1cncc1[C@@](N)(c1ccc(Cl)cc1)c1ccc2c(c1)c(-c1cccc(Cl)c1)cc(=O)n2C [Tipifarnib]
Outline: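 Acceptance criteria were a control CV below 25% and at least one doubling per plate. Lung cancer cell lines in 1536-well plates got five library-drug doses (not always all listed) √10 apart by pinning and were left 5 days with no medium change. Viability divides treated-well nuclei by vehicle-well nuclei and is the median across plates. Nuclei were counted by MetaXpress from 4× Hoechst images.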

Tipifarnib + Foretinib = compound: Cn1cncc1[C@@](N)(c1ccc(Cl)cc1)c1ccc2c(c1)c(-c1cccc(Cl)c1)cc(=O)n2C [Tipifarnib] + COc1cc2c(Oc3ccc(NC(=O)C4(C(=O)Nc5ccc(F)cc5)CC4)cc3F)ccnc2cc1OCCCN1CCOCC1 [Foretinib] (partner 0.25 µM)
Outline: (§1)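 Medians of duplicate plates are given as relative viability. That measure is the nuclei count in treated wells divided by the count in vehicle wells. Counts were taken on 4× images of lung cancer cell lines in 1536-well plates, 5 days after pin-tool dosing the day after seeding with one drug alone or a fixed anchor-drug dose plus five library-drug doses (not always all listed) in √10 steps.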

Tipifarnib + Palbociclib = compound: Cn1cncc1[C@@](N)(c1ccc(Cl)cc1)c1ccc2c(c1)c(-c1cccc(Cl)c1)cc(=O)n2C [Tipifarnib] + CC(=O)c1c(C)c2cnc(Nc3ccc(N4CCNCC4)cn3)nc2n(C2CCCC2)c1=O [Palbociclib] (partner 0.5 µM)
Outline: as §1

Tipifarnib + OSI-027 = compound: Cn1cncc1[C@@](N)(c1ccc(Cl)cc1)c1ccc2c(c1)c(-c1cccc(Cl)c1)cc(=O)n2C [Tipifarnib] + COc1cccc2cc(-c3nc([C@H]4CC[C@H](C(=O)O)CC4)n4ncnc(N)c34)[nH]c12 [OSI-027] (partner 0.5 µM)
Outline: as §1

Cell Line: NCI-H2342
- relative viability (Tipifarnib; 0.01 µM): 1.06
- relative viability (Tipifarnib; 0.03162 µM): 0.984
- relative viability (Tipifarnib; 0.1 µM): 0.749
- relative viability (Tipifarnib; 0.3162 µM): 0.807
- relative viability (Tipifarnib; 1 µM): 0.571
- relative viability (Tipifarnib + Foretinib; first compound 0.01 µM): 1.06
- relative viability (Tipifarnib + Foretinib; first compound 0.03162 µM): 0.984
- relative viability (Tipifarnib + Foretinib; first compound 0.1 µM): 0.884
- relative viability (Tipifarnib + Foretinib; first compound 0.3162 µM): 0.824
- relative viability (Tipifarnib + Foretinib; first compound 1 µM): 0.771
- relative viability (Tipifarnib + Palbociclib; first compound 0.01 µM): 0.535
- relative viability (Tipifarnib + Palbociclib; first compound 0.03162 µM): 0.493
- relative viability (Tipifarnib + Palbociclib; first compound 0.1 µM): 0.555
- relative viability (Tipifarnib + Palbociclib; first compound 0.3162 µM): 0.499
- relative viability (Tipifarnib + Palbociclib; first compound 1 µM): 0.488
- relative viability (Tipifarnib + OSI-027; first compound 0.01 µM): 0.634
- relative viability (Tipifarnib + OSI-027; first compound 0.03162 µM): 0.542
- relative viability (Tipifarnib + OSI-027; first compound 0.1 µM): 0.631
- relative viability (Tipifarnib + OSI-027; first compound 0.3162 µM): 0.564
- relative viability (Tipifarnib + OSI-027; first compound 1 µM): 0.448

Cell Line: NCI-H2347
- relative viability (Tipifarnib; 0.01 µM): 0.831
- relative viability (Tipifarnib; 0.03162 µM): 0.89
- relative viability (Tipifarnib; 0.1 µM): 0.735
- relative viability (Tipifarnib; 0.3162 µM): 0.676
- relative viability (Tipifarnib; 1 µM): 0.691
- relative viability (Tipifarnib + Foretinib; first compound 0.01 µM): 1.34
- relative viability (Tipifarnib + Foretinib; first compound 0.03162 µM): 0.76
- relative viability (Tipifarnib + Foretinib; first compound 0.1 µM): 0.723
- relative viability (Tipifarnib + Foretinib; first compound 0.3162 µM): 0.756
- relative viability (Tipifarnib + Foretinib; first compound 1 µM): 0.528
- relative viability (Tipifarnib + Palbociclib; first compound 0.01 µM): 0.361
- relative viability (Tipifarnib + Palbociclib; first compound 0.03162 µM): 0.388
- relative viability (Tipifarnib + Palbociclib; first compound 0.1 µM): 0.398
- relative viability (Tipifarnib + Palbociclib; first compound 0.3162 µM): 0.381
- relative viability (Tipifarnib + Palbociclib; first compound 1 µM): 0.361
- relative viability (Tipifarnib + OSI-027; first compound 0.01 µM): 0.479
- relative viability (Tipifarnib + OSI-027; first compound 0.03162 µM): 0.368
- relative viability (Tipifarnib + OSI-027; first compound 0.1 µM): 0.411
- relative viability (Tipifarnib + OSI-027; first compound 0.3162 µM): 0.259
- relative viability (Tipifarnib + OSI-027; first compound 1 µM): 0.334

Cell Line: NCI-H2405
- relative viability (Tipifarnib; 0.01 µM): 1.03
- relative viability (Tipifarnib; 0.03162 µM): 0.984
- relative viability (Tipifarnib; 0.1 µM): 0.928
- relative viability (Tipifarnib; 0.3162 µM): 0.954
- relative viability (Tipifarnib; 1 µM): 0.735
- relative viability (Tipifarnib + Foretinib; first compound 0.01 µM): 1.06
- relative viability (Tipifarnib + Foretinib; first compound 0.03162 µM): 1.03
- relative viability (Tipifarnib + Foretinib; first compound 0.1 µM): 1.03
- relative viability (Tipifarnib + Foretinib; first compound 0.3162 µM): 0.993
- relative viability (Tipifarnib + Foretinib; first compound 1 µM): 0.923
- relative viability (Tipifarnib + Palbociclib; first compound 0.01 µM): 0.562
- relative viability (Tipifarnib + Palbociclib; first compound 0.03162 µM): 0.517
- relative viability (Tipifarnib + Palbociclib; first compound 0.1 µM): 0.525
- relative viability (Tipifarnib + Palbociclib; first compound 0.3162 µM): 0.492
- relative viability (Tipifarnib + Palbociclib; first compound 1 µM): 0.517
- relative viability (Tipifarnib + OSI-027; first compound 0.01 µM): 0.673
- relative viability (Tipifarnib + OSI-027; first compound 0.03162 µM): 0.641
- relative viability (Tipifarnib + OSI-027; first compound 0.1 µM): 0.629
- relative viability (Tipifarnib + OSI-027; first compound 0.3162 µM): 0.599
- relative viability (Tipifarnib + OSI-027; first compound 1 µM): 0.474

Cell Line: NCI-H3122
- relative viability (Tipifarnib; 0.01 µM): 1.02
- relative viability (Tipifarnib; 0.03162 µM): 0.977
- relative viability (Tipifarnib; 0.1 µM): 0.949
- relative viability (Tipifarnib; 0.3162 µM): 0.704
- relative viability (Tipifarnib; 1 µM): 0.44
- relative viability (Tipifarnib + Foretinib; first compound 0.01 µM): 0.957
- relative viability (Tipifarnib + Foretinib; first compound 0.03162 µM): 0.796
- relative viability (Tipifarnib + Foretinib; first compound 0.1 µM): 0.744
- relative viability (Tipifarnib + Foretinib; first compound 0.3162 µM): 0.693
- relative viability (Tipifarnib + Foretinib; first compound 1 µM): 0.544
- relative viability (Tipifarnib + Palbociclib; first compound 0.01 µM): 0.193
- relative viability (Tipifarnib + Palbociclib; first compound 0.03162 µM): 0.189
- relative viability (Tipifarnib + Palbociclib; first compound 0.1 µM): 0.196
- relative viability (Tipifarnib + Palbociclib; first compound 0.3162 µM): 0.179
- relative viability (Tipifarnib + Palbociclib; first compound 1 µM): 0.14
- relative viability (Tipifarnib + OSI-027; first compound 0.01 µM): 0.949
- relative viability (Tipifarnib + OSI-027; first compound 0.03162 µM): 0.568
- relative viability (Tipifarnib + OSI-027; first compound 0.1 µM): 0.384
- relative viability (Tipifarnib + OSI-027; first compound 0.3162 µM): 0.233
- relative viability (Tipifarnib + OSI-027; first compound 1 µM): 0.225

Cell Line: PC-3 [JPC-3]
- relative viability (Tipifarnib; 0.01 µM): 0.981
- relative viability (Tipifarnib; 0.03162 µM): 0.977
- relative viability (Tipifarnib; 0.1 µM): 0.979
- relative viability (Tipifarnib; 0.3162 µM): 0.754
- relative viability (Tipifarnib; 1 µM): 0.576
- relative viability (Tipifarnib + Foretinib; first compound 0.01 µM): 1.06
- relative viability (Tipifarnib + Foretinib; first compound 0.03162 µM): 1.02
- relative viability (Tipifarnib + Foretinib; first compound 0.1 µM): 0.955
- relative viability (Tipifarnib + Foretinib; first compound 0.3162 µM): 0.749
- relative viability (Tipifarnib + Foretinib; first compound 1 µM): 0.6
- relative viability (Tipifarnib + Palbociclib; first compound 0.01 µM): 0.458
- relative viability (Tipifarnib + Palbociclib; first compound 0.03162 µM): 0.553
- relative viability (Tipifarnib + Palbociclib; first compound 0.1 µM): 0.642
- relative viability (Tipifarnib + Palbociclib; first compound 0.3162 µM): 0.497
- relative viability (Tipifarnib + Palbociclib; first compound 1 µM): 0.495
- relative viability (Tipifarnib + OSI-027; first compound 0.01 µM): 0.751
- relative viability (Tipifarnib + OSI-027; first compound 0.03162 µM): 0.67
- relative viability (Tipifarnib + OSI-027; first compound 0.1 µM): 0.598
- relative viability (Tipifarnib + OSI-027; first compound 0.3162 µM): 0.343
- relative viability (Tipifarnib + OSI-027; first compound 1 µM): 0.324
